Experiments:
Assay type in all cases: cell-based
[1] = target: Protein cereblon/Serine/threonine-protein kinase B-raf (Homo sapiens, UniProt P15056+Q96SW2, G466V); test: Protac activity at E3 ubiquitin-protein ligase/BRAF G466V mutant in human T-REx-293 cells assessed as BRAF degradation incubated for 24 hrs by plate reader assay
[2] = system: Protein cereblon/Serine/threonine-protein kinase B-raf (Homo sapiens), P15056+Q96SW2 [G466V]; test: Protac activity at E3 ubiquitin-protein ligase/BRAF G466V mutant in human T-REx-293 cells assessed as maximal BRAF degradation incubated for 24 hrs by plate reader assay
[3] = system: Protein cereblon/Serine/threonine-protein kinase B-raf (Homo sapiens), P15056+Q96SW2 [V600E]; test: Protac activity at E3 ubiquitin-protein ligase/BRAF V600E mutant in human T-REx-293 cells assessed as maximal BRAF degradation incubated for 24 hrs by plate reader assay
[4] = target: Protein cereblon/Serine/threonine-protein kinase B-raf (Homo sapiens, UniProt P15056+Q96SW2, V600E); test: Protac activity at E3 ubiquitin-protein ligase/BRAF V600E mutant in human T-REx-293 cells assessed as BRAF degradation incubated for 24 hrs by plate reader assay
Chain of Protein cereblon/Serine/threonine-protein kinase B-raf (Homo sapiens, UniProt P15056+Q96SW2, V600E) (P15056 2-766 V600E limits assumed, stated change not applied): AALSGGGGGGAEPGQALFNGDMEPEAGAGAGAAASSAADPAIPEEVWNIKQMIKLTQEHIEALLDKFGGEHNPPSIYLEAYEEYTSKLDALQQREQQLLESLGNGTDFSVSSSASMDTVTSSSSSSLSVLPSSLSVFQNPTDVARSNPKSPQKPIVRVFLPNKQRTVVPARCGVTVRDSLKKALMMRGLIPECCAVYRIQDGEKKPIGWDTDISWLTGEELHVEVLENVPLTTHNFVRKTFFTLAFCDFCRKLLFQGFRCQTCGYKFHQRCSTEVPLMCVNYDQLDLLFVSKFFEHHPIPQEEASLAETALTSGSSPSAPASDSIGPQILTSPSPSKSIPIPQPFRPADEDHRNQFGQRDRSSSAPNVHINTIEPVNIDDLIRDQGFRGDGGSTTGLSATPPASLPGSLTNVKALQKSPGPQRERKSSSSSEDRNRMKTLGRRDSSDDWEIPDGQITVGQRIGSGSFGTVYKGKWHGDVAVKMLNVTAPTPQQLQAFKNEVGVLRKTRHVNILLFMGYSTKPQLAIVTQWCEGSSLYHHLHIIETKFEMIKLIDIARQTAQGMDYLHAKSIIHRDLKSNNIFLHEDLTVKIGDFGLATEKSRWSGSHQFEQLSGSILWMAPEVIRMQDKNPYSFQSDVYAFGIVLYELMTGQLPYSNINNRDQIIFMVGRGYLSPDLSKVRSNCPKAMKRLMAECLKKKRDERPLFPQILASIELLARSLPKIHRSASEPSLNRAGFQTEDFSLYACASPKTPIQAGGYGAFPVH
Chain of Protein cereblon/Serine/threonine-protein kinase B-raf (Homo sapiens, UniProt P15056+Q96SW2, V600E) (Q96SW2 whole entry, stated change not applied): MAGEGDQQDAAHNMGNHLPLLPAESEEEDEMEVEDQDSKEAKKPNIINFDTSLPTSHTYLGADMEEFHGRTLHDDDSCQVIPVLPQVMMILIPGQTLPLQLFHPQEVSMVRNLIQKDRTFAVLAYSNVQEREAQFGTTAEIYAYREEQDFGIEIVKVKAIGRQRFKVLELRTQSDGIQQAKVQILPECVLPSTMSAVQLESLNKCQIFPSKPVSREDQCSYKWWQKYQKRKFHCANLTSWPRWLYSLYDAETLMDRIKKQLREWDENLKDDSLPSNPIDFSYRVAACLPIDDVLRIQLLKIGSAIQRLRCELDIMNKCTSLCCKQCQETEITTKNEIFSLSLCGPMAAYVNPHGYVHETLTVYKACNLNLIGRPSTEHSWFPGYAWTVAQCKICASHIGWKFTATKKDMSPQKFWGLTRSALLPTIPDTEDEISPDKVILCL

[5] = target: T1, RAF proto-oncogene serine/threonine-protein kinase (Homo sapiens, UniProt P04049); test: Inhibition of RAF in human A-375 cells assessed as ERK phosphorylation at Thr202/Tyr204 residue incubated for 6 hrs by HTRF assay
T1 sequence (P04049 whole entry): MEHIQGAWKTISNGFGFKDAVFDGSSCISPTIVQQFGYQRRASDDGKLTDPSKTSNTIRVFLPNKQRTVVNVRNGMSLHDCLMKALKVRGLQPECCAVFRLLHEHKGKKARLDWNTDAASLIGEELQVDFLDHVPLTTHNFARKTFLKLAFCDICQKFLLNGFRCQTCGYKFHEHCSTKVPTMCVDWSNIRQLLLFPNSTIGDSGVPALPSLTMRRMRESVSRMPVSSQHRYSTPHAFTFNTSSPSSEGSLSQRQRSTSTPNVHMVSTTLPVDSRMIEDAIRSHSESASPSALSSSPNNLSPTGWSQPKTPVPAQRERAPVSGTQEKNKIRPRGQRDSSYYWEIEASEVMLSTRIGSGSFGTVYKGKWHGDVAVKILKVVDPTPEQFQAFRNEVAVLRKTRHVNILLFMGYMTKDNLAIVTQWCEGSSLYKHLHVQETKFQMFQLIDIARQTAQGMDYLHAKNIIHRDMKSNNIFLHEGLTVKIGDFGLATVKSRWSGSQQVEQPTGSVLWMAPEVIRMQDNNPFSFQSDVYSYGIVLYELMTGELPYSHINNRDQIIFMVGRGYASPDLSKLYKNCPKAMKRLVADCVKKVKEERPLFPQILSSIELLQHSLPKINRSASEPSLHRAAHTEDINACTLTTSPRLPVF

[6] = target: T1, RAF proto-oncogene serine/threonine-protein kinase; test: Inhibition of RAF in human WM3629 cells assessed as ERK phosphorylation at Thr202/Tyr204 residue incubated for 6 hrs by HTRF assay

Compound	DC50 [1]	Emax [2]	Emax [3]	DC50 [4]	IC50 [5]	IC50 [6]
O=C1CCC(N2Cc3cc(N4CCC(CN5CC6(CCN(c7ncc(-c8cnc9[nH]cc(C(=O)c%10c(F)ccc(NS(=O)(=O)N%11CC[C@@H](F)C%11)c%10F)c9c8)cn7)C6)C5)CC4)ccc3C2=O)C(=O)N1 (some centres not stated)	1 nM	> 70%	35%	≤ 5 nM	–	–
Cc1ncc(NC(=O)N2CC[C@@H](CC(F)(F)F)C2)cc1-c1cnc(OCCN2CCN(c3ccc4c(c3)C(=O)N(C3CCC(=O)NC3=O)C4=O)CC2)c(N2CCOCC2)c1 (some centres not stated)	–	–	–	–	1000 nM	10 nM
Cc1ccc(NC(=O)N2CC[C@@H](CC(F)(F)F)C2)cc1-c1cnc(OCCN2CCN(c3ccc4c(c3)C(=O)N(C3CCC(=O)NC3=O)C4=O)CC2)c(N2CCOCC2)c1 (some centres not stated)	–	–	–	–	100 nM	10 nM
COc1cc(N2CCC(CN3CCC4(CC3)CCN(c3ccc(-c5cnc6[nH]cc(C(=O)c7c(F)ccc(NS(=O)(=O)N8CC[C@@H](F)C8)c7F)c6c5)cc3)CC4)CC2)cc2c1C(=O)N(C1CCC(=O)NC1=O)C2 (some centres not stated)	1 nM	35%	35%	≤ 5 nM	–	–

Reference: ChEMBL document CHEMBL5131550, “Application of Rapidly Accelerating Fibrosarcoma Protein Degraders in Drug Discovery” (ACS Med Chem Lett, 2022)
